# Data as given in PubChem BioAssay (NCI).
#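 Following 48 hours of exposure in 96-well plates, responses at five concentrations were used to interpolate endpoints linearly. TGI: concentration producing complete growth inhibition.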 *1 amine or outer side, *2 acyl side, *3 side chain or, on linkers, in order; H or OH if unused. Where a SMILES comes first, the peptide text is derived from it. Bridges are numbered along the chain shown (N, C = ends). Roman numbers before positions name the chains, in order. [ ]: non-standard residue; d: D form. Actinocin(9to1) = Cc1c2oc3c(C)ccc(C(=O)[*:1])c3nc-2c(C(=O)[*:2])c(N)c1=O; NMeV = CN[CH](C(=O)O)C(C)C; Sar = CNCC(=O)O
# Tests used:
# Assay in all cases: NCI tumour cell line growth inhibition, 48 h
# [1] = system: OVCAR-3 ovarian
# [2] = system: TK-10 renal
# [3] = system: A549 NSCLC
# [4] = system: COLO 205 colon
# [5] = system: RXF 393 renal
# [6] = system: SF-268 CNS
# [7] = system: HCT-116 colon
# [8] = system: MDA-MB-231 breast
# [9] = system: NCI/ADR-RES ovarian
# [10] = system: MDA-MB-435
Structure (SMILES),TGI [1],TGI [2],TGI [3],TGI [4],TGI [5],TGI [6],TGI [7],TGI [8],TGI [9],TGI [10]
CCc1ccc2[nH]c(O)c(-c3[nH]c4ccccc4c3N=O)c2c1,14.4 µM,23.7 µM,37 µM,23.2 µM,11.2 µM,22.3 µM,10 µM,40.7 µM,48.8 µM,21.9 µM
Cc1sc(/N=C/c2c[nH]c3ccccc23)c(C#N)c1C,66.1 µM,74.9 µM,> 100 µM,> 100 µM,74 µM,> 100 µM,> 100 µM,> 100 µM,> 100 µM,> 100 µM
CCOC(=O)CNC(=O)C(C)NC(=O)C(NC(=O)CC(c1ncc[nH]1)c1ncc[nH]1)C(C)CC (configuration not stated),> 100 µM,> 100 µM,> 100 µM,> 100 µM,,> 100 µM,> 100 µM,> 100 µM,> 100 µM,> 100 µM
Cc1nc2ccc(S(=O)(=O)O)cc2c(=O)n1-c1ccc(C(=O)NN2C(=O)C(Cl)C2c2ccccc2O)cc1 (configuration not stated),> 100 µM,> 100 µM,> 100 µM,> 100 µM,> 100 µM,> 100 µM,> 100 µM,> 100 µM,> 100 µM,> 100 µM
COC(OC)C1OC(CO)C(n2ccc(N)nc2=O)C1O (configuration not stated),> 100 µM,> 100 µM,> 100 µM,> 100 µM,> 100 µM,> 100 µM,> 100 µM,> 100 µM,> 100 µM,> 100 µM
O=C1C(Br)=CC2(C=C1Br)CCNC1=C2C(=O)c2cccnc2C1=O,17.9 µM,35.9 µM,30.1 µM,30.1 µM,21.3 µM,32.2 µM,26.4 µM,31.1 µM,49.1 µM,3.33 µM
O=C1/C(=C/c2ccccc2[N+](=O)[O-])N=C(c2ccccc2)N1C1Nc2cc3c(cc2S1)NC(N1C(=O)/C(=C/c2ccccc2[N+](=O)[O-])N=C1c1ccccc1)S3 (configuration not stated),> 100 µM,> 100 µM,> 100 µM,,> 100 µM,> 100 µM,> 100 µM,> 100 µM,97.4 µM,> 100 µM
"Cc1c2oc3c(C)ccc(C(=O)NC4C(=O)NC(C(C)O)C(=O)N5CCCC5C(=O)N(C)CC(=O)N(C)C(C(C)C)C(=O)OC4C)c3nc-2c(C(=O)NC2C(=O)NC(C(C)O)C(=O)N3CCCC3C(=O)N(C)CC(=O)N(C)C(C(C)C)C(=O)OC2C)c(N)c1=O (configuration not stated) (I: TTP[Sar][NMeV] / II: TTP[Sar][NMeV]; ester I:1-I:C, II:1-II:C; linker I:N-II:N via Actinocin(9to1); configuration not given here)",4.71 µM,6.18 µM,32.1 µM,0.762 µM,1.29 µM,> 100 µM,> 100 µM,> 100 µM,> 100 µM,3.81 µM
CC[C@H](C)[C@H]1NC(=O)[C@@H](NC(=O)[C@@H](CC(C)C)N(C)CC2CCCN2C(=O)C(C)=O)[C@@H](C)OC(=O)[C@H](Cc2ccc(OC)cc2)N(C)C(=O)C2CCCN2C(=O)[C@H](CC(C)C)NC(=O)[C@@H](C)C(=O)[C@H](C(C)C)OC(=O)C[C@@H]1O (some centres not stated),0.0151 µM,0.0202 µM,0.0335 µM,0.00879 µM,0.00299 µM,0.0257 µM,0.0102 µM,0.0251 µM,0.231 µM,0.0105 µM
C=C(C)C(=O)[C@@]12C(=O)[C@@H](C)CC[C@H]1[C@H](C)C[C@@H]2C=C(C)C,38.5 µM,> 100 µM,> 100 µM,41.5 µM,,36 µM,42.6 µM,51.3 µM,83.5 µM,54.3 µM
